ChEMBL document CHEMBL3603789, “N-Lipidated Peptide Dimers: Effective Antibacterial Agents against Gram-Negative Pathogens through Lipopolysaccharide Permeabilization” (J Med Chem, 2015)
In brackets after ≈: the same amount, converted by molar mass. Activity calls are given as the source filed them. The rule behind the calls is not given here. Bridge positions count the residues as written; N and C are the ends. Peptide text beside a SMILES is read from it. I, II: the chains in the order shown. * marks the point of attachment. Octanoyl = CCCCCCCC(=O)*

How the values were obtained:
[1] = Toxicity in New Zealand white rabbit erythrocytes assessed as hemolytic activity after 60 mins; assay type: cell-based, Oryctolagus cuniculus; conditions: erythrocyte, 1 h
[2] = system: Klebsiella pneumoniae; test: Antibacterial activity against Klebsiella pneumoniae DM4299 after 24 hrs by broth microdilution method; assay type: functional; conditions: DM4299, 24 h
[3] = system: Pseudomonas aeruginosa; test: Antibacterial activity against Pseudomonas aeruginosa DM23155 after 24 hrs by broth microdilution method; assay type: functional; conditions: DM23155, 24 h
[4] = system: Escherichia coli; test: Antibacterial activity against Escherichia coli ATCC 25922 after 24 hrs by broth microdilution method; assay type: functional; conditions: ATCC 25922, 24 h
[5] = system: Pseudomonas aeruginosa; test: Antibacterial activity against Pseudomonas aeruginosa DR18531 after 24 hrs by broth microdilution method; assay type: functional; conditions: DR18531, 24 h
[6] = system: Pseudomonas aeruginosa; test: Antibacterial activity against Pseudomonas aeruginosa DM4150R after 24 hrs by broth microdilution method; assay type: functional
[7] = system: Pseudomonas aeruginosa; test: Antibacterial activity against Pseudomonas aeruginosa DM23257 after 24 hrs by broth microdilution method; assay type: functional; conditions: DM23257, 24 h
[8] = system: Pseudomonas aeruginosa; test: Antibacterial activity against Pseudomonas aeruginosa DM23376 after 24 hrs by broth microdilution method; assay type: functional; conditions: DM23376, 24 h
[9] = system: Pseudomonas aeruginosa; test: Antibacterial activity against Pseudomonas aeruginosa DU14476 after 24 hrs by broth microdilution method; assay type: functional; conditions: DU14476, 24 h
[10] = system: Pseudomonas aeruginosa; test: Antibacterial activity against Pseudomonas aeruginosa DR5790 after 24 hrs by broth microdilution method; assay type: functional; conditions: DR5790, 24 h
[11] = system: Pseudomonas aeruginosa; test: Antibacterial activity against Pseudomonas aeruginosa DR4877 after 24 hrs by broth microdilution method; assay type: functional; conditions: DR4877, 24 h
[12] = system: Pseudomonas aeruginosa; test: Antibacterial activity against Pseudomonas aeruginosa ATCC 9027 after 24 hrs by broth microdilution method; assay type: functional; conditions: ATCC 9027, 24 h
[13] = system: Pseudomonas aeruginosa; test: Antibacterial activity against Pseudomonas aeruginosa ATCC 27853 after 24 hrs by broth microdilution method; assay type: functional; conditions: ATCC 27853, 24 h
[14] = system: Escherichia coli; test: Antibacterial activity against Escherichia coli DS17232 after 24 hrs by broth microdilution method; assay type: functional; conditions: DS17232, 24 h
[15] = system: Escherichia coli; test: Antibacterial activity against Escherichia coli DM17528 after 24 hrs by broth microdilution method; assay type: functional; conditions: DM17528, 24 h
[16] = system: Klebsiella pneumoniae; test: Antibacterial activity against Klebsiella pneumoniae DS07955 after 24 hrs by broth microdilution method; assay type: functional; conditions: DS07955, 24 h
[17] = system: Klebsiella pneumoniae; test: Antibacterial activity against Klebsiella pneumoniae DS16260 after 24 hrs by broth microdilution method; assay type: functional; conditions: DS16260, 24 h
[18] = system: Klebsiella pneumoniae; test: Antibacterial activity against Klebsiella pneumoniae DU31158 after 24 hrs by broth microdilution method; assay type: functional; conditions: DU31158, 24 h
[19] = system: Klebsiella pneumoniae; test: Antibacterial activity against Klebsiella pneumoniae DB55301 after 24 hrs by broth microdilution method; assay type: functional; conditions: DB55301, 24 h
[20] = system: Lipopolysaccharide (LPS); test: Displacement of dansylcadaverine from Escherichia coli 0111:B4 LPS at 15 to 30 uM after 5 mins by high-throughput fluorescence displacement assay
[21] = system: Lipopolysaccharide (LPS); test: Induction of Escherichia coli 0111:B4 LPS neutralization using p-nitroaniline assessed as concentration required to neutralize 50% after 1 hr by limulus amebocyte lysate assay
[22] = system: Pseudomonas aeruginosa; test: Induction of cytoplasmic membrane depolarization in Pseudomonas aeruginosa DM23155 at 4 times MIC after 1 hr by fluorescence assay; assay type: functional, organism-based
[23] = system: Pseudomonas aeruginosa; test: Induction of cytoplasmic membrane disruption in Pseudomonas aeruginosa DM23155 assessed as membrane integrity at 1 to 2 times MIC after 1 hr by fluorescence assay; assay type: functional
[24] = Induction of calcein leakage from DOPE/DOPG artificial membrane at 1:32 ratio of compound to lipid by fluorescence assay; assay type: physicochemical
[25] = Induction of calcein leakage from DOPC artificial membrane at 1:32 ratio of compound to lipid by fluorescence assay; assay type: physicochemical
[26] = system: Pseudomonas aeruginosa; test: Antibacterial activity against Pseudomonas aeruginosa DM23155 assessed as log reduction of viable count at 2 times MIC after 30 mins by time-kill assay relative to control; assay type: functional
[27] = system: Pseudomonas aeruginosa; test: Antibacterial activity against Pseudomonas aeruginosa DM23155 assessed as log reduction of viable count MIC up to 24 hrs by time-kill assay; assay type: functional, organism-based
[28] = system: Pseudomonas aeruginosa; test: Antibacterial activity against Pseudomonas aeruginosa DM23155 assessed as log reduction of viable count at 2 times MIC after 24 hrs by time-kill assay; assay type: functional, organism-based
[29] = Toxicity in human corneal fibroblasts assessed as cell viability at > 2000 uM after 4 hrs by ATP luminescent assay; assay type: cell-based; conditions: fibroblast
[30] = Toxicity in human corneal fibroblasts assessed as cell viability at > 2000 uM after 4 hrs by LDH assay; assay type: cell-based; conditions: fibroblast
[31] = system: Mus musculus; test: Corneal toxicity in mouse at 1 to 3 mg/ml applied topically 5 times per day measured 24 hrs after last dose; assay type: organism-based; conditions: in vivo, topical_or_ocular
[32] = system: Mus musculus; test: Corneal toxicity in mouse at 6.25 mg/kg, iv measured 24 hrs after last dose; assay type: organism-based; conditions: in vivo
[33] = system: Mus musculus; test: Corneal toxicity in mouse at 100 mg/kg, ip measured 24 hrs after last dose; assay type: organism-based; conditions: in vivo
[34] = system: Pseudomonas aeruginosa; test: Antibacterial activity against Pseudomonas aeruginosa DM23155 after 24 hrs by checkerboard assay in presence of nalidixic acid; assay type: functional
[35] = system: Pseudomonas aeruginosa; test: Antibacterial activity against Pseudomonas aeruginosa DM23155 after 24 hrs by checkerboard assay in presence of gentamicin; assay type: functional
[36] = system: Pseudomonas aeruginosa; test: Antibacterial activity against Pseudomonas aeruginosa DM23155 after 24 hrs by checkerboard assay in presence of erythromycin; assay type: functional
[37] = system: Pseudomonas aeruginosa; test: Antibacterial activity against Pseudomonas aeruginosa DM23155 after 24 hrs by checkerboard assay in presence of streptomycin; assay type: functional
[38] = system: Pseudomonas aeruginosa; test: Antibacterial activity against Pseudomonas aeruginosa DM23155 after 24 hrs by checkerboard assay in presence of kanamycin; assay type: functional
[39] = system: Escherichia coli; test: Antibacterial activity against Escherichia coli ATCC 25922 after 24 hrs by checkerboard assay in presence of nalidixic acid; assay type: functional
[40] = system: Escherichia coli; test: Antibacterial activity against Escherichia coli ATCC 25922 after 24 hrs by checkerboard assay in presence of gentamicin; assay type: functional
[41] = system: Escherichia coli; test: Antibacterial activity against Escherichia coli ATCC 25922 after 24 hrs by checkerboard assay in presence of erythromycin; assay type: functional
[42] = system: Escherichia coli; test: Antibacterial activity against Escherichia coli ATCC 25922 after 24 hrs by checkerboard assay in presence of streptomycin; assay type: functional
[43] = system: Escherichia coli; test: Antibacterial activity against Escherichia coli ATCC 25922 after 24 hrs by checkerboard assay in presence of kanamycin; assay type: functional
[44] = system: Pseudomonas aeruginosa; test: Induction of 1-N-phenylnaphthylamine uptake in Pseudomonas aeruginosa DM23155 at 400 uM after 1 hr by fluorescence assay relative to polymyxin B; assay type: functional
[45] = system: Pseudomonas aeruginosa; test: Antibacterial activity against Pseudomonas aeruginosa DM23155 assessed as log reduction of viable count at 2 times MIC after 5 hrs by time-kill assay relative to control; assay type: functional
[46] = system: Pseudomonas aeruginosa; test: Antibacterial activity against Pseudomonas aeruginosa DM23155 assessed as log reduction of viable count at 1 time MIC after 24 hrs by time-kill assay; assay type: functional, organism-based
[47] = system: Pseudomonas aeruginosa; test: Antibacterial activity against Pseudomonas aeruginosa DM23155 assessed as log reduction of viable count at 1 time MIC after 5 hrs by time-kill assay relative to control; assay type: functional

CCCCCCCC(=O)N[C@@H](CCCNC(=N)N)C(=O)NCC(=O)N[C@@H](CCCNC(=N)N)C(=O)N[C@@H](CCCCN)C(=O)N[C@H](C(=O)N[C@H](C(=O)N[C@@H](CCCNC(=N)N)C(=O)N[C@@H](CCCNC(=N)N)C(=O)NCCCC[C@H](NC(=O)[C@H](CCCNC(=N)N)NC(=O)[C@H](CCCNC(=N)N)NC(=O)[C@@H](NC(=O)[C@@H](NC(=O)[C@H](CCCCN)NC(=O)[C@H](CCCNC(=N)N)NC(=O)CNC(=O)[C@H](CCCNC(=N)N)NC(=O)CCCCCCC)C(C)C)C(C)C)C(=O)N[C@@H](CCCCN)C(=O)O)C(C)C)C(C)C (I: Octanoyl-RGRKVVRRKK-OH / II: Octanoyl-RGRKVVRR; amide I:9-II:C)
HC10 [1]: > 10000 µg/mL
MIC [2]: 3 µM (≈ 7.63 µg/mL)
MIC [3]: 3 µM (≈ 7.63 µg/mL)
MIC [4]: 6 µM (≈ 15.3 µg/mL)
MIC [5]: 1.5 µM (≈ 3.81 µg/mL)
MIC [6]: 3 µM (≈ 7.63 µg/mL)
MIC [7]: 3 µM (≈ 7.63 µg/mL)
MIC [8]: 3 µM (≈ 7.63 µg/mL)
MIC [9]: 3 µM (≈ 7.63 µg/mL)
MIC [10]: 3 µM (≈ 7.63 µg/mL)
MIC [11]: 3 µM (≈ 7.63 µg/mL)
MIC [12]: 3 µM (≈ 7.63 µg/mL)
MIC [13]: 3 µM (≈ 7.63 µg/mL)
MIC [14]: 10 µM (≈ 25.4 µg/mL)
MIC [15]: 10 µM (≈ 25.4 µg/mL)
MIC [16]: 10 µM (≈ 25.4 µg/mL)
MIC [17]: 3 µM (≈ 7.63 µg/mL)
MIC [18]: 10 µM (≈ 25.4 µg/mL)
MIC [19]: 10 µM (≈ 25.4 µg/mL)
Activity [20]: 121%
EC50 [21]: 73.4 µM
Activity [22]: Active
Activity [23]: >80%
Activity [24]: Active
Activity [25]: Active
FC [26]: 3
Activity [27]: Dose-dependent effect
Activity [28]: Active
Activity [29]: > 2000 µM
Activity [30]: > 2000 µM
Activity [31]: Non-toxic
Activity [32]: Non-toxic
Activity [33]: Non-toxic
fractional inhibitory concentration index (FICI) [34]: 0.5
fractional inhibitory concentration index (FICI) [35]: 0.38
fractional inhibitory concentration index (FICI) [36]: 0.56
fractional inhibitory concentration index (FICI) [37]: 0.56
fractional inhibitory concentration index (FICI) [38]: 0.56
fractional inhibitory concentration index (FICI) [39]: 0.5
fractional inhibitory concentration index (FICI) [40]: 0.31
fractional inhibitory concentration index (FICI) [41]: 0.56
fractional inhibitory concentration index (FICI) [42]: 0.31
fractional inhibitory concentration index (FICI) [43]: 0.31

N=C(N)NCCC[C@H](NC(=O)CNC(=O)CNC(=O)[C@H](CCCCN)NC(=O)[C@H](CCCNC(=N)N)NC(=O)CNC(=O)[C@@H](N)CCCNC(=N)N)C(=O)N[C@@H](CCCNC(=N)N)C(=O)NCCCC[C@H](NC(=O)[C@H](CCCNC(=N)N)NC(=O)[C@H](CCCNC(=N)N)NC(=O)CNC(=O)CNC(=O)[C@H](CCCCN)NC(=O)[C@H](CCCNC(=N)N)NC(=O)CNC(=O)[C@@H](N)CCCNC(=N)N)C(=O)N[C@@H](CCCCN)C(=O)O (I: H-RGRKGGRRKK-OH / II: H-RGRKGGRR; amide I:9-II:C)
HC10 [1]: > 10000 µg/mL
MIC [2]: 3 µM (≈ 6.37 µg/mL)
MIC [3]: 6 µM (≈ 12.7 µg/mL)
MIC [4]: 6 µM (≈ 12.7 µg/mL)
MIC [5]: 3 µM (≈ 6.37 µg/mL)
MIC [6]: 6 µM (≈ 12.7 µg/mL)
MIC [7]: 10 µM (≈ 21.2 µg/mL)
MIC [8]: 6 µM (≈ 12.7 µg/mL)
MIC [9]: 6 µM (≈ 12.7 µg/mL)
MIC [10]: 6 µM (≈ 12.7 µg/mL)
MIC [11]: 6 µM (≈ 12.7 µg/mL)
MIC [12]: 6 µM (≈ 12.7 µg/mL)
MIC [13]: 6 µM (≈ 12.7 µg/mL)
Activity [20]: 84.8%
EC50 [21]: > 1000 µM
Activity [44]: 1.9%
FC [45]: 10
Activity [28]: Active
Activity [46]: inactive
FC [47]: 2.7
